Results from PubChem BioAssay (NCI).
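Values below derive from 48-hour exposures of cells grown in 96-well plates, with endpoints linearly interpolated between the two concentrations bracketing the appropriate inhibition level. The concentration for 50% growth inhibition is given as GI50. TGI: total growth inhibition.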

Columns and labels:
Experiment in all cases: DTP human tumour cell line panel, 48 h
HL-60(TB) leukemia = test system: HL-60(TB) leukemia
CCRF-CEM leukemia = test system: CCRF-CEM leukemia
U251 CNS = test system: U251 CNS
SK-MEL-2 melanoma = test system: SK-MEL-2 melanoma
UACC-257 melanoma = test system: UACC-257 melanoma
SF-295 CNS = test system: SF-295 CNS
HOP-92 NSCLC = test system: HOP-92 NSCLC
PC-3 prostate = test system: PC-3 prostate
LXFL 529 NSCLC = test system: LXFL 529 NSCLC
DLD-1 colon = test system: DLD-1 colon

O=C1/C(=C/c2ccc(F)cc2)CN(C(=O)C(Cl)Cl)C/C1=C\c1ccc(F)cc1
GI50 (HL-60(TB) leukemia): 0.229 µM
TGI (HL-60(TB) leukemia): 1.55 µM
GI50 (CCRF-CEM leukemia): 0.136 µM
TGI (CCRF-CEM leukemia): > 24.2 µM
GI50 (U251 CNS): 0.106 µM
TGI (U251 CNS): 0.335 µM
GI50 (SK-MEL-2 melanoma): 0.94 µM
TGI (SK-MEL-2 melanoma): 2.9 µM
GI50 (UACC-257 melanoma): 0.45 µM
TGI (UACC-257 melanoma): 1.62 µM
GI50 (SF-295 CNS): 0.23 µM
TGI (SF-295 CNS): 0.67 µM
GI50 (HOP-92 NSCLC): 1.31 µM
TGI (HOP-92 NSCLC): 3.13 µM
GI50 (PC-3 prostate): 0.25 µM
TGI (PC-3 prostate): 0.818 µM

CC(=O)Nc1ccc(OC(C)=O)cc1
GI50 (HL-60(TB) leukemia): < 0.01 µM
TGI (HL-60(TB) leukemia): < 0.01 µM
GI50 (CCRF-CEM leukemia): < 0.01 µM
TGI (CCRF-CEM leukemia): > 49.8 µM
GI50 (U251 CNS): < 0.01 µM
TGI (U251 CNS): > 37.7 µM
GI50 (SK-MEL-2 melanoma): < 0.01 µM
TGI (SK-MEL-2 melanoma): 8.54 µM
TGI (UACC-257 melanoma): 29.7 µM
GI50 (SF-295 CNS): < 0.01 µM
TGI (SF-295 CNS): 12.4 µM
GI50 (HOP-92 NSCLC): < 0.0116 µM
TGI (HOP-92 NSCLC): 1.81 µM
GI50 (PC-3 prostate): < 0.01 µM
TGI (PC-3 prostate): > 66.3 µM

CC[C@]12C=CCN3CC[C@@]4(c5ccc(OC)cc5N(C)[C@H]4[C@@](O)(C(=O)OC)[C@@H]1OC(=O)CCC(=O)O[C@H]1CC[C@H]4[C@@H]5CC[C@H]6CC(=O)CC[C@]6(C)[C@H]5CC[C@]14C)[C@@H]32
GI50 (HL-60(TB) leukemia): 2.12 µM
TGI (HL-60(TB) leukemia): 5.36 µM
GI50 (CCRF-CEM leukemia): 3.04 µM
TGI (CCRF-CEM leukemia): > 100 µM
GI50 (U251 CNS): 3.74 µM
TGI (U251 CNS): 22.8 µM
GI50 (SK-MEL-2 melanoma): 2.49 µM
TGI (SK-MEL-2 melanoma): 6.18 µM
GI50 (UACC-257 melanoma): 3.91 µM
TGI (UACC-257 melanoma): 16.6 µM
GI50 (SF-295 CNS): 2.02 µM
TGI (SF-295 CNS): > 100 µM
GI50 (HOP-92 NSCLC): 1.83 µM
TGI (HOP-92 NSCLC): 9.72 µM
GI50 (PC-3 prostate): 0.703 µM
TGI (PC-3 prostate): > 100 µM

COc1ccc2nc3c(cc2c1)C(=O)CC(c1ccccc1)C3 (stereo unspecified)
GI50 (HL-60(TB) leukemia): 0.301 µM
GI50 (CCRF-CEM leukemia): 0.291 µM
TGI (CCRF-CEM leukemia): > 100 µM
GI50 (U251 CNS): 5.81 µM
TGI (U251 CNS): > 100 µM
GI50 (SK-MEL-2 melanoma): 0.771 µM
TGI (SK-MEL-2 melanoma): > 100 µM
GI50 (UACC-257 melanoma): > 100 µM
TGI (UACC-257 melanoma): > 100 µM
GI50 (SF-295 CNS): 0.905 µM
TGI (SF-295 CNS): 11 µM
TGI (HOP-92 NSCLC): > 100 µM
GI50 (PC-3 prostate): 0.901 µM
TGI (PC-3 prostate): > 100 µM

CC(=O)NCc1c(C(N)=O)ncn1Cc1ccccc1
TGI (HL-60(TB) leukemia): > 100 µM
TGI (CCRF-CEM leukemia): > 100 µM
TGI (U251 CNS): > 100 µM
TGI (UACC-257 melanoma): > 100 µM
TGI (SF-295 CNS): > 100 µM
TGI (LXFL 529 NSCLC): > 100 µM
TGI (HOP-92 NSCLC): > 100 µM

[Co].[O-]c1cccnc1C=Nc1ccccc1.[OH3+]
GI50 (HL-60(TB) leukemia): 21.8 µM
TGI (HL-60(TB) leukemia): > 100 µM
GI50 (CCRF-CEM leukemia): > 100 µM
TGI (CCRF-CEM leukemia): > 100 µM
GI50 (U251 CNS): > 100 µM
TGI (U251 CNS): > 100 µM
GI50 (DLD-1 colon): 90.7 µM
TGI (DLD-1 colon): > 100 µM
GI50 (SK-MEL-2 melanoma): > 100 µM
TGI (SK-MEL-2 melanoma): > 100 µM
GI50 (UACC-257 melanoma): > 100 µM
TGI (UACC-257 melanoma): > 100 µM
GI50 (LXFL 529 NSCLC): 47.2 µM
TGI (LXFL 529 NSCLC): > 100 µM
GI50 (HOP-92 NSCLC): 28.7 µM
TGI (HOP-92 NSCLC): > 100 µM

CCOC(=O)c1c2c(n3ccc(NC(=O)CCN4CCCCC4)cc13)C(=O)c1ncccc1C2=O
GI50 (HL-60(TB) leukemia): 1.46 µM
TGI (HL-60(TB) leukemia): 3.46 µM
GI50 (CCRF-CEM leukemia): 1.18 µM
TGI (CCRF-CEM leukemia): 3.68 µM
GI50 (U251 CNS): 1.09 µM
TGI (U251 CNS): 2.47 µM
GI50 (SK-MEL-2 melanoma): 3.99 µM
TGI (SK-MEL-2 melanoma): 23.8 µM
GI50 (UACC-257 melanoma): 2.45 µM
TGI (UACC-257 melanoma): 7.99 µM
GI50 (SF-295 CNS): 0.121 µM
TGI (SF-295 CNS): 1.92 µM
GI50 (HOP-92 NSCLC): 9.63 µM
TGI (HOP-92 NSCLC): 24.6 µM
GI50 (PC-3 prostate): 1.2 µM
TGI (PC-3 prostate): 2.63 µM

CC1(C)CCc2c(c(N=Nc3ccccc3F)c3ccccc3c2O)O1
GI50 (HL-60(TB) leukemia): > 100 µM
TGI (HL-60(TB) leukemia): > 100 µM
GI50 (CCRF-CEM leukemia): > 100 µM
TGI (CCRF-CEM leukemia): > 100 µM
GI50 (U251 CNS): 19.4 µM
TGI (U251 CNS): 37 µM
GI50 (SK-MEL-2 melanoma): > 100 µM
TGI (SK-MEL-2 melanoma): > 100 µM
GI50 (UACC-257 melanoma): > 100 µM
TGI (UACC-257 melanoma): > 100 µM
GI50 (SF-295 CNS): 17.8 µM
TGI (SF-295 CNS): 44 µM
GI50 (HOP-92 NSCLC): 92.6 µM
TGI (HOP-92 NSCLC): > 100 µM
GI50 (PC-3 prostate): 59.8 µM
TGI (PC-3 prostate): > 100 µM
